Patent US9006194B2, “Compositions and methods for diminishing viral infection and inflammation associated with viral infection” (Drexel University, priority 2008, dated 2015)

System: CD4+ and CD8+ T cells
Test: Apoptosis assay of primary human CD4+ and CD8+ T lymphocytes exposed to Type 1 interferon (CD95/Fas-induced, Annexin V)
Conditions: 5 ng/mL for 72 hours, resting or anti-CD3 activated T cells, n=5 healthy donors
Description: T cells were activated with anti-CD3 antibody. n=5 healthy donors for each group.
Primary human PBMC were isolated were isolated by density centrifugation using Ficoll from heparinized venous blood of HIV-1-seronegative adult donors and seeded into 24-well plates at a concentration of 1×10^6 cells/mL/well. Freshly isolated PBMC were treated with 5 ng/mL recombinant IFN-α (PBL Interferon Source; Piscataway, N.J.) in the presence or absence of monoclonal anti-CD3 antibody (OKT3). Anti-CD3 was immobilized by coating plates with 0.1 μg/mL in PBS for 2 hours. Following a 3 day incubation period, PBMC were harvested and transferred to 24-well plates that were uncoated or coated with 5 μg/mL monoclonal anti-CD95 antibody (IgM, CH11; Immunotech, Brea, Calif.) for 14 hour at 37° C. in 5% CO2. Cells were subsequently harvested, counted and stained for flow cytometry analysis. The following combinations of mAb were used to identify CD4+ and CD8+ T cell subpopulations: anti-CD3-PE/anti-CD4-APC/anti-CD8-PerCP; and for the apoptosis studies: Annexin V-Cy5.5 (eBioscience, San Diego, Calif.). One million cells were stained as previously described (Mueller Y M et al., 2001, Immunity. 15:871-882) with the combination of antibodies in HBSS (Cellgro, Herndon, Va.), 3% FBS, 0.02% NaN3 for 15 min on ice, washed twice with HBSS, 3% FBS, 0.02% NaN3 and fixed with 1% paraformaldehyde. […]

IFN-α
CD95/Fas-induced apoptosis of T cells (in words): increase
